This passage reports IC50 results from patent US20120183579A1, “COMPOUNDS FOR INFLAMMATION AND IMMUNE-RELATED USES” (Synta Pharmaceuticals Corp., priority 2008, published 2012).

Molecules are shown by their SMILES. Where a name gives a salt, the structure may show the parent alone.

For the assay, the system named is IL-2. As to the kind of experiment: Inhibition of IL-2 production (Jurkat cells activated with PHA, ELISA). Format: cell-based. Conditions: Homo sapiens, Jurkat, Jurkat/PHA/1% FBS; numeric values. Here is the method: Jurkat cells were placed in a 96 well plate (0.5 million cells per well in 1% FBS medium), and then a test compound of this invention was added at different concentrations. After 10 minutes, the cells were activated with PHA (final concentration 2.5 μg/mL) and incubated for 20 hours at 37° C. under 5% CO2. The final volume was 200 μL. Following incubation, the cells were centrifuged, and the supernatants collected and stored at −70° C. prior to assaying for IL-2 production. A commercial ELISA kit (IL-2 Eli-pair, Diaclone Research, Besancon, France) was used to detect production of IL-2, from which dose response curves were obtained. The IC50 value was calculated as the concentration at which 50% of maximum IL-2 production after stimulation was inhibited versus a non-stimulation control.

As a reminder, the IC50 is the point on the concentration scale where inhibition reaches its midpoint. A higher IC50 goes with weaker potency in that assay. Turning to `Cn1nnc(N2CCC(Cl)=C(c3cnc(NC(=O)c4cc(F)ccc4Cl)cn3)C2)n1` [Compound 62, 2-chloro-N-(5-(4-chloro-1-(2-methyl-2H-tetrazol-5-yl)-1,2,5,6-tetrahydropyridin-3-yl)pyrazin-2-yl)-5-fluorobenzamide], the IC50 stood at 49 nM. The result for `CC1=C(c2cnc(NC(=O)c3cc(F)ccc3Cl)cn2)CN(c2nccs2)CC1` [Compound 21, 2-chloro-5-fluoro-N-(5-(4-methyl-1-(thiazol-2-yl)-1,2,5,6-tetrahydropyridin-3-yl)pyrazin-2-yl)benzamide] reads 55 nM; that for `C=CCOC(=O)N1CCC(C)=C(c2ccc(NC(=O)c3c(F)cccc3F)cc2)C1` [Compound 61, allyl 3-(4-(2,6-difluorobenzamido)phenyl)-4-methyl-5,6-dihydropyridine-1(2H)-carboxylate], 46 nM. In the case of `CC1=C(c2cnc(NC(=O)c3cnccc3C)cn2)CN(c2ncccc2F)CC1` [Compound 31, N-(5-(1-(3-fluoropyridin-2-yl)-4-methyl-1,2,5,6-tetrahydropyridin-3-yl)pyrazin-2-yl)-4-methylnicotinamide] it was 21 nM; in that of `CC1=C(c2cnc(NC(=O)c3c(C)cccc3F)cn2)CN(c2ncc(C)s2)CC1` [Compound 50, 2-fluoro-6-methyl-N-(5-(4-methyl-1-(5-methylthiazol-2-yl)-1,2,5,6-tetrahydropyridin-3-yl)pyrazin-2-yl)benzamide], 37 nM. The result for `CC1=C(c2cnc(NC(=O)c3ccc(F)cc3Cl)cn2)CN(c2ncccc2F)CC1` [Compound 63, 2-chloro-4-fluoro-N-(5-(1-(3-fluoropyridin-2-yl)-4-methyl-1,2,5,6-tetrahydropyridin-3-yl)pyrazin-2-yl) benzamide] reads 49 nM; that for `CC1=C(c2cnc(NC(=O)c3c(F)cccc3Cl)cn2)CN(c2ncc(C)s2)CC1` [Compound 48, 2-chloro-6-fluoro-N-(5-(4-methyl-1-(5-methylthiazol-2-yl)-1,2,5,6-tetrahydropyridin-3-yl)pyrazin-2-yl)benzamide], 36 nM. `O=C(Nc1cnc(C2=C(Cl)CCN(c3nccs3)C2)cn1)c1c(F)cccc1F` [Compound 12, N-(5-(4-chloro-1-(thiazol-2-yl)-1,2,5,6-tetrahydropyridin-3-yl)pyrazin-2-yl)-2,6-difluorobenzamide hydrochloride] gave an IC50 of 19 nM. The result for `CC1=C(c2ccc(NC(=O)c3ccncc3F)cc2)CN(c2ncccc2F)CC1` [Compound 23, 3-fluoro-N-(4-(1-(3-fluoropyridin-2-yl)-4-methyl-1,2,5,6-tetrahydropyridin-3-yl)phenyl)isonicotinamide] reads 14 nM; that for `CC1=C(c2ccc(NC(=O)c3c(F)cncc3F)cc2)CN(c2ccccn2)CC1` [Compound 26, 3,5-difluoro-N-(4-(4-methyl-1-(pyridin-2-yl)-1,2,5,6-tetrahydropyridin-3-yl)phenyl)isonicotinamide hydrochloride], 18 nM; that for `CC1=C(c2ccc(NC(=O)c3ccccc3F)cc2)CN(c2nccs2)CC1` [Compound 7, 2-fluoro-N-(4-(4-methyl-1-(thiazol-2-yl)-1,2,5,6-tetrahydropyridin-3-yl)phenyl)benzamide], 13 nM. Regarding `CC1=C(c2ccc(NC(=O)c3c(F)cc(F)cc3F)cc2)CN(c2ncccc2C#N)CC1` [Compound 43, N-(4-(1-(3-cyanopyridin-2-yl)-4-methyl-1,2,5,6-tetrahydropyridin-3-yl)phenyl)-2,4,6-trifluorobenzamide], 31 nM corresponded to half-maximal inhibition (IC50). `CC1=C(c2ccc(NC(=O)c3c(F)cccc3F)cc2)CN(S(=O)(=O)N(C)C)CC1` [Compound 64, N-(4-(1-(N,N-dimethylsulfamoyl)-4-methyl-1,2,5,6-tetrahydropyridin-3-yl)phenyl)-2,6-difluorobenzamide] gave an IC50 of 49 nM. In turn, `CC1=C(c2ccc(NC(=O)c3c(Cl)cncc3Cl)cc2)CN(c2ccccn2)CC1` [Compound 51, 3,5-dichloro-N-(4-(4-methyl-1-(pyridin-2-yl)-1,2,5,6-tetrahydropyridin-3-yl)phenyl)isonicotinamide] displayed an IC50 of 37 nM. The IC50 values of the last two compounds are within 1.5-fold of each other. In the case of `CC1=C(c2cnc(NC(=O)c3cc(F)ccc3F)cn2)CN(c2ncccc2F)CC1` [Compound 40, 2,5-difluoro-N-(5-(1-(3-fluoropyridin-2-yl)-4-methyl-1,2,5,6-tetrahydropyridin-3-yl)pyrazin-2-yl)benzamide] it was 27 nM; in that of `Cn1nnc(N2CCC(Cl)=C(c3ccc(NC(=O)c4c(F)cccc4Cl)cc3)C2)n1` [Compound 56, 2-chloro-N-(4-(4-chloro-1-(2-methyl-2H-tetrazol-5-yl)-1,2,5,6-tetrahydropyridin-3-yl)phenyl)-6-fluorobenzamide], 41 nM; in that of `CC1=C(c2cnc(NC(=O)c3cc(F)ccc3Cl)cn2)CN(c2ncccc2F)CC1` [Compound 16, 2-chloro-5-fluoro-N-(5-(1-(3-fluoropyridin-2-yl)-4-methyl-1,2,5,6-tetrahydropyridin-3-yl)pyrazin-2-yl)benzamide], 30 nM. The compound `Cn1nnc(N2CCC(C3CC3)=C(c3ccc(NC(=O)c4c(F)cccc4F)cc3)C2)n1` [Compound 8, N-(4-(4-cyclopropyl-1-(2-methyl-2H-tetrazol-5-yl)-1,2,5,6-tetrahydropyridin-3-yl)phenyl)-2,6-difluorobenzamide] had an IC50 of 14 nM. Compared with the last compound, the IC50 is about 2.1-fold lower. The compound `CC1=C(c2cnc(NC(=O)c3c(F)cccc3F)cn2)CN(c2ncc(C)s2)CC1` [Compound 9, 2,6-difluoro-N-(5-(4-methyl-1-(5-methylthiazol-2-yl)-1,2,5,6-tetrahydropyridin-3-yl)pyrazin-2-yl)benzamide hydrochloride] returned an IC50 of 15 nM. The result for `CC1=C(c2cnc(NC(=O)c3c(F)cccc3F)cn2)CN(c2ccncc2F)CC1` [Compound 38, 2,6-difluoro-N-(5-(1-(3-fluoropyridin-4-yl)-4-methyl-1,2,5,6-tetrahydropyridin-3-yl)pyrazin-2-yl)benzamide] reads 26 nM; that for `CC1=C(c2ccc(NC(=O)c3ccccc3F)cc2)CN(c2nnn(C)n2)CC1` [Compound 30, 2-fluoro-N-(4-(4-methyl-1-(2-methyl-2H-tetrazol-5-yl)-1,2,5,6-tetrahydropyridin-3-yl)phenyl)benzamide], 21 nM. Regarding `CC1=C(c2cnc(NC(=O)c3c(F)cccc3F)cn2)CN(c2ncc(F)cc2F)CC1` [Compound 19, N-(5-(1-(3,5-difluoropyridin-2-yl)-4-methyl-1,2,5,6-tetrahydropyridin-3-yl)pyrazin-2-yl)-2,6-difluorobenzamide], half-maximal inhibition (IC50) required 36 nM. This IC50 lies about 1.7-fold higher than the previous one. As for `O=C(Nc1ccc(C2=C(Cl)CCN(c3nccs3)C2)cc1)c1c(F)cccc1F` [Compound 28, N-(4-(4-chloro-1-(thiazol-2-yl)-1,2,5,6-tetrahydropyridin-3-yl)phenyl)-2,6-difluorobenzamide], the midpoint of inhibition, the IC50, lay at 19 nM. As to `CC1=C(c2ccc(NC(=O)c3ccncc3C)cc2)CN(c2ncccc2F)CC1` [Compound 41, N-(4-(1-(3-fluoropyridin-2-yl)-4-methyl-1,2,5,6-tetrahydropyridin-3-yl)phenyl)-3-methylisonicotinamide], the half-inhibitory concentration (IC50) came to 28 nM. As for `CC1=C(c2ccc(NC(=O)c3c(F)cccc3F)cc2)CN(c2nc(Cl)cs2)CC1` [Compound 54, N-(4-(1-(4-chlorothiazol-2-yl)-4-methyl-1,2,5,6-tetrahydropyridin-3-yl)phenyl)-2,6-difluorobenzamide], inhibition was half-maximal at 40 nM (IC50). This IC50 and that of the compound before are within 1.5-fold of each other. The result for `CC1=C(c2cnc(NC(=O)c3cc(F)ccc3C)cn2)CN(c2ncccc2F)CC1` [Compound 13, 5-fluoro-N-(5-(1-(3-fluoropyridin-2-yl)-4-methyl-1,2,5,6-tetrahydropyridin-3-yl)pyrazin-2-yl)-2-methylbenzamide] reads 30 nM. For the compound `COc1cccc(F)c1C(=O)Nc1cnc(C2=C(C)CCN(c3ncccc3F)C2)cn1` [Compound 46, 2-fluoro-N-(5-(1-(3-fluoropyridin-2-yl)-4-methyl-1,2,5,6-tetrahydropyridin-3-yl)pyrazin-2-yl)-6-methoxybenzamide], the IC50 was 35 nM. In the case of `CC1=C(c2ccc(NC(=O)c3c(Cl)cncc3Cl)cc2)CN(c2ncccc2F)CC1` [Compound 55, 3,5-dichloro-N-(4-(1-(3-fluoropyridin-2-yl)-4-methyl-1,2,5,6-tetrahydropyridin-3-yl)phenyl)isonicotinamide] it was 41 nM; in that of `CC1=C(c2ccc(NC(=O)c3c(F)cccc3F)cc2)CN(c2cnccn2)CC1` [Compound 58, 2,6-difluoro-N-(4-(4-methyl-1-(pyrazin-2-yl)-1,2,5,6-tetrahydropyridin-3-yl)phenyl)benzamide], 44 nM. The result for `CC1=C(c2cnc(NC(=O)c3c(F)cccc3F)cn2)CN(c2nc(-c3cccnc3)cs2)CC1` [Compound 59, 2,6-difluoro-N-(5-(4-methyl-1-(4-(pyridin-3-yl)thiazol-2-yl)-1,2,5,6-tetrahydropyridin-3-yl)pyrazin-2-yl)benzamide] reads 44 nM; that for `CC1=C(c2cnc(NC(=O)c3cccc(F)c3C)cn2)CN(c2ncc(C)s2)CC1` [Compound 52, 3-fluoro-2-methyl-N-(5-(4-methyl-1-(5-methylthiazol-2-yl)-1,2,5,6-tetrahydropyridin-3-yl)pyrazin-2-yl)benzamide hydrochloride], 40 nM; that for `CC1=C(c2cnc(NC(=O)c3cccc(F)c3Cl)cn2)CN(c2ncccc2F)CC1` [Compound 49, 2-chloro-3-fluoro-N-(5-(1-(3-fluoropyridin-2-yl)-4-methyl-1,2,5,6-tetrahydropyridin-3-yl)pyrazin-2-yl)benzamide], 36 nM.
